Experimental data taken from patent publication US8742156B2 (priority 2010, dated 2014).
Where a name gives a salt, the structure may show the parent alone.

System: H1N1 virus (A/Vicotria/07159200/07 (Tamiflu-resistant strain))
Format: cell-based, Human influenza H1N1 virus
Conditions: for effect on viral titers of Tamiflu-resistant (Tami-R) H1N1 virus: FIG. 1, multiplicity of infection of 0.2

| Structure (SMILES) | effect on viral titers of Tamiflu-resistant (Tami-R) H1N1 virus | viral titer of Tami-R H1N1-infected cells decreased (fold) (FIG. 1, multiplicity of infection of 0.2, 48-hour post-infection) | Tami-R H1N1 viral titers decreased (%) (10 uM, multiplicity of infection of 0.2, 48-hour post-infection) |
| --- | --- | --- | --- |
| N=C(Nc1ccccc1)SCCCSC(=N)Nc1ccccc1 [Compound 58, Carbamimidothioic acid, phenyl-, 1,3-propanediyl ester, dihydrobromide] | potent inhibitory effects | 4 | – |
| CCOC(=O)C1=C[C@@H](OC(CC)CC)[C@H](NC(C)=O)[C@@H](N)C1 [Tamiflu, oseltamivir, reference compound] | minimal effects | – | 20 |
